Here are results for nine molecules from patent US12122761B2, “2-azaspiro[3.4]octane derivatives as M4 agonists” (NOVARTIS AG, priority 2019, dated 2024).

Each structure is given as a SMILES string. Some results are limits rather than exact numbers.

For experiment [1], the target named is T1, Cloned human M1 receptor (CHRM1) stably expressed in HEK293 cells (Homo sapiens, UniProt P11229).
T1 construct: expressed in transfected cells; host or cells: HEK293
T1 sequence (P11229 1-460): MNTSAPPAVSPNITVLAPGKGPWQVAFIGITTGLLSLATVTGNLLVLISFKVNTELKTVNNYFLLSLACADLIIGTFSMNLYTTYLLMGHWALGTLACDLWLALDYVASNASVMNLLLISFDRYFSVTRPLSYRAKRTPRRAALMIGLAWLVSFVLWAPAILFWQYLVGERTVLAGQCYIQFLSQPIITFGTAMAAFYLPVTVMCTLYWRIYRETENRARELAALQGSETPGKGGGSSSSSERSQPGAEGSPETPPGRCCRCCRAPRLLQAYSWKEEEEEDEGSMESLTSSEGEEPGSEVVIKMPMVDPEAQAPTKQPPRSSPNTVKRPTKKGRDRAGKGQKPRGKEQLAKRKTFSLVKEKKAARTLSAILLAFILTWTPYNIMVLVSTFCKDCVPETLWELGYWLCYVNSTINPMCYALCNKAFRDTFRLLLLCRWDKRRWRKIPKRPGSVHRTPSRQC
The experiment in a line: CHRM1 Ca++ Flux Assay (agonist mode, FDSS 7000EX). The following applies: for M1 FDSS PA: Percent Activity; for EC50: geometric mean if tested more than once. In kind it is cell-based. Here is the method:
(§1) The above examples were characterized by measuring the intracellular mobilization of Ca++ ions caused by signaling events mediated by the receptor. The Intra-cellular Calcium flux levels were captured by the highly sensitive Ca++ indicator, Calcium Assay Kit (BD Biosciences, Catalog Number 640178). The fluorescent activity from all receptors were monitored by the fluorescent imager, FDSS 7000EX (Hamamatsu) over a span of 3 minutes.
Cloned human M1 receptor (CHRM1) was stably expressed in HEK293 cells and were grown and maintained in a monolayer culture with DMEM/High Glucose (Life Technologies) supplemented with 10% Fetal Bovine Serum, 1× Pen-Strep, and 0.5 mg/mL Geneticin in a humidified atmosphere (5% CO2) at 37° C. The cultures were grown to 90% confluency in T150 flasks (Corning) and washed with 1×DPBS and lifted with 0.05% Trypsin (Life Technologies). The cells were then spun (1K rpm, 3 minutes) and frozen using Recovery Cell Culture Freezing Media (Gibco Technologies). Cells were stored in liquid nitrogen and thawed a day before the assay.
Prior to the day of the assay, stable HEK293 M1 cells were thawed and plated on 384 well black walled clear bottom TC treated plates (Greiner Cat #781091) at 25K cells/well with DMEM/High Glucose supplemented with 10% FBS (Hyclone) Pen-Strep (Life Technologies) and kept overnight in a humidified atmosphere (5% CO2) at 37° C. The following day, cells were loaded with 20 uL Ca^++ dye (BD Biosciences) using Loading Buffer (HBSS +Ca/+Mg, 20 mM HEPES) and placed back in cell incubator for a minimum of 1 hour. The dye was replaced with 45 μL Assay Buffer (HBSS −Ca/−Mg, 20 mM HEPES) and kept at room temperature prior to running on cell imager. Compounds were prepared in Assay Buffer and 5 uL was added to the cells. The FDSS 7000EX (Hamamatsu) was used to acquire Ca++ traces for 3 minutes from cells treated with 11 point dose in triplicate in order to generate dose response curves in agonist mode. All compounds were serially diluted in DMSO then prepared in Assay Buffer for Ca^++ flux studies. The dose response curves were generated from the average of triplicate wells obtained from each data point and used a non-linear regression of four parameter dose response algorithm. The Percent Activity (PA) was measured to EC100 of Carbachol.

Experiment [2] has as its target T2, human cloned CHRM3 receptor (M3_CHO cells) (Homo sapiens, UniProt P20309).
T2 construct: expressed in transfected cells; host or cells: CHO-K1
The experiment in a line: CHRM3 Ca++ Flux Assay (agonist mode, FDSS 7000EX). It is filed as cell-based. To be noted: for M3 FDSS PA: Percent Activity measured to EC100 of Carbachol; for EC50: agonist mode, geometric mean if tested more than once, read-out: M3 FDSS EC50. The method, then:
as §1
CHO-K1 cells stably expressing the human cloned CHRM3 receptor (M3_CHO cells) were grown and maintained in a monolayer culture with F12/HAM (Life Technologies) supplemented with 10% Fetal Bovine Serum, 1× Pen-Strep, and 0.4 mg/mL Geneticin in a humidified atmosphere (5% CO2) at 37° C. The cultures were grown to 80-9 0% confluency in T150 flasks (Corning) and washed with 1×DPBS and lifted with 0.05% Trypsin (Life Technologies). The cells were then spun (1K rpm, 3 minutes) and frozen using Recovery Cell Culture Freezing Media (Gibco Technologies). Cells were stored in liquid nitrogen and thawed a day before the assay. A similar procedure was used for cells stably expressing the human cloned CHRM5 receptor (M5_CHO).
Prior to the day of the assay, stable M3_CHO or M5_CHO cells were thawed and plated on Greiner 384 well black TC treated plates at 12K cells/well in F12/DMEM supplemented with 10% FBS (Hyclone) and kept overnight in a humidified atmosphere (5% CO2) at 37° C. The next day, cells were loaded with Ca^++ dye (BD Biosciences) using Loading Buffer (HBSS +Ca/+Mg, 20 mM HEPES, 2.5 mM Probenecid) and placed back in cell incubator for a minimum of 1 hour. After incubation, the dye was replaced with Assay Buffer (HBSS −Ca/−Mg, 20 mM HEPES, 2.5 mM Probenecid) and kept at room temperature in the dark before running on cell imager. The FDSS 7000EX (Hamamatsu) was used to acquire Ca^++ traces from cells treated with 11 point dose response of compounds in triplicate in order to generate dose response curves in agonist mode. All compounds were serially diluted in DMSO then prepared in Assay Buffer for Ca^++ flux studies. The dose response curves were generated from the average of triplicate wells obtained from each data point and used a non-linear regression of four parameter dose response algorithm. The Percent Activity (PA) was measured to EC100 of Carbachol.

T2 sequence (P20309 whole entry): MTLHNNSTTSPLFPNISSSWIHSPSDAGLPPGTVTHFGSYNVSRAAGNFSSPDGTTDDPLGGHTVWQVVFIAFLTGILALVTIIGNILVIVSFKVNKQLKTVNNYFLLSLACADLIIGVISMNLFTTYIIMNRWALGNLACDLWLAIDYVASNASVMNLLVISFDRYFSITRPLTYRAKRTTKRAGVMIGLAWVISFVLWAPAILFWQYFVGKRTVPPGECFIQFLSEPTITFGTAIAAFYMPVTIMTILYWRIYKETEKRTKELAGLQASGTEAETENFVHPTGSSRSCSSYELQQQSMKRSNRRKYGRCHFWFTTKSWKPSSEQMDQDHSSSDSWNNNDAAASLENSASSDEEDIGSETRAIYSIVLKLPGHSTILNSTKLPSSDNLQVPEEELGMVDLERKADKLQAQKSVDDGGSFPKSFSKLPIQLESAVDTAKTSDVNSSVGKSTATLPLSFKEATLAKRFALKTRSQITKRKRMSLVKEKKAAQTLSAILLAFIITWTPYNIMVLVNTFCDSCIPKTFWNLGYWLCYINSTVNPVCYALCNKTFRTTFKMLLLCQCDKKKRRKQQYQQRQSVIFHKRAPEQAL

Take `O[C@H]1CC[C@@H](c2ccccc2C2CCN([C@@H]3CCC4(C3)CN(c3nnco3)C4)CC2)CC1` (single isomer, unassigned) [Example 2N, (1S,4s)-4-(2-(1-((R)-2-(1,3,4-oxadiazol-2-yl)-2-azaspiro[3.4]octan-6-yl)piperidin-4-yl)phenyl)cyclohexan-1-ol or (1R,4r)-4-(2-(1-((R)-2-(1,3,4-oxadiazol-2-yl)-2-azaspiro[3.4]octan-6-yl)piperidin-4-yl)phenyl)cyclohexan-1-ol]: in experiment [1], the “M1 FDSS PA” value came out at 69% and the EC50 worked out at 302 nM. In experiment [2], the “M3 FDSS PA” value was 0% and the concentration giving a half-maximal response (EC50) was > 25000 nM.
Regarding `OC1CCC(c2ccccc2C2CCN([C@@H]3CCC4(C3)CN(c3nnco3)C4)CC2)CC1` (single isomer, unassigned) [Example 2O, (1s,4r)-4-(2-(1-((R)-2-(1,3,4-oxadiazol-2-yl)-2-azaspiro[3.4]octan-6-yl)piperidin-4-yl)phenyl)cyclohexan-1-ol or (1r,4r)-4-(2-(1-((R)-2-(1,3,4-oxadiazol-2-yl)-2-azaspiro[3.4]octan-6-yl)piperidin-4-yl)phenyl)cyclohexan-1-ol], in experiment [1], the “M1 FDSS PA” value came to 77% and the EC50 worked out at 81 nM. In addition, in experiment [2], the “M3 FDSS PA” value is recorded as 0% and the EC50 was > 25000 nM.
Regarding `O=C(N1CC2(CC[C@@H](N3CCC(c4ccccc4OCCC(F)(F)F)CC3)C2)C1)C1(F)CC1` (single isomer, unassigned) [Example 7AA, (R)-(1-fluorocyclopropyl)(6-(4-(2-(3,3,3-trifluoropropoxy)phenyl)piperidin-1-yl)-2-azaspiro[3.4]octan-2-yl)methanone or (S)-(1-fluorocyclopropyl)(6-(4-(2-(3,3,3-trifluoropropoxy)phenyl)piperidin-1-yl)-2-azaspiro[3.4]octan-2-yl)methanone], in experiment [1], the “M1 FDSS PA” value worked out at 57% and the half-maximal effective concentration (EC50) was determined as 139 nM. In experiment [2], the “M3 FDSS PA” value is on record as 0% and the EC50 was > 25000 nM.
In the case of `CC(C)(O)CCOc1ccccc1C1CCN([C@@H]2CCC3(C2)CN(C(=O)C2(F)CC2)C3)CC1` (single isomer, unassigned) [Example 7BB, (R)-(1-fluorocyclopropyl)(6-(4-(2-(3-hydroxy-3-methylbutoxy)phenyl)piperidin-1-yl)-2-azaspiro[3.4]octan-2-yl)methanone or (S)-(1-fluorocyclopropyl)(6-(4-(2-(3-hydroxy-3-methylbutoxy)phenyl)piperidin-1-yl)-2-azaspiro[3.4]octan-2-yl)methanone], in experiment [1], the “M1 FDSS PA” value was 55% and the half-maximal effective concentration (EC50) came out at 13 nM. Besides, in experiment [2], the “M3 FDSS PA” value is listed as 0% and the half-maximal effective concentration (EC50) was > 25000 nM.
For `COC(C)(C)CCOc1ccccc1C1CCN([C@@H]2CCC3(C2)CN(C(=O)C2(F)CC2)C3)CC1` (single isomer, unassigned) [Example 7FF, (R)-(1-fluorocyclopropyl)(6-(4-(2-(3-methoxy-3-methylbutoxy)phenyl)piperidin-1-yl)-2-azaspiro[3.4]octan-2-yl)methanone or (S)-(1-fluorocyclopropyl)(6-(4-(2-(3-methoxy-3-methylbutoxy)phenyl)piperidin-1-yl)-2-azaspiro[3.4]octan-2-yl)methanone] the same measures were 7%, 182 nM, 0% and > 25000 nM.
`O=C(N1CC2(CC[C@@H](N3CCC(c4ccccc4OCc4ncccn4)CC3)C2)C1)C1(F)CC1` (single isomer, unassigned) [Example 7M, (R)-(1-fluorocyclopropyl)(6-(4-(2-(pyrimidin-2-ylmethoxy)phenyl)piperidin-1-yl)-2-azaspiro[3.4]octan-2-yl)methanone or (S)-(1-fluorocyclopropyl)(6-(4-(2-(pyrimidin-2-ylmethoxy)phenyl)piperidin-1-yl)-2-azaspiro[3.4]octan-2-yl)methanone]: in experiment [1], the “M1 FDSS PA” value is 84% and the response was half-maximal at 10 nM (EC50). For the same molecule, in experiment [2], the “M3 FDSS PA” value came to 0% and the EC50 is > 25000 nM.
The corresponding values for `O=C(N1CC2(CC[C@@H](N3CCC(c4ccccc4OCCO)CC3)C2)C1)C1(F)CC1` (single isomer, unassigned) [Example 7N, (R)-(1-fluorocyclopropyl)(6-(4-(2-(2-hydroxyethoxy)phenyl)piperidin-1-yl)-2-azaspiro[3.4]octan-2-yl)methanone or (S)-(1-fluorocyclopropyl)(6-(4-(2-(2-hydroxyethoxy)phenyl)piperidin-1-yl)-2-azaspiro[3.4]octan-2-yl)methanone] are 45%, 22 nM, 0% and > 25000 nM.
Consider `O=C(N1CC2(CC[C@@H](N3CCC(c4ccccc4OCC4CC4)CC3)C2)C1)C1(F)CC1` (single isomer, unassigned) [Example 7O, (R)-(6-(4-(2-(cyclopropylmethoxy)phenyl)piperidin-1-yl)-2-azaspiro[3.4]octan-2-yl)(1-fluorocyclopropyl)methanone or (R)-(6-(4-(2-(cyclopropylmethoxy)phenyl)piperidin-1-yl)-2-azaspiro[3.4]octan-2-yl)(1-fluorocyclopropyl)methanone], for which, in experiment [1], the “M1 FDSS PA” value was determined as 57% and the EC50 was 37 nM. Also, in experiment [2], the “M3 FDSS PA” value turned out to be 0% and the half-maximal effective concentration (EC50) is > 25000 nM.
The corresponding values for `O=C1CCCN1CCOc1ccccc1C1CCN([C@@H]2CCC3(C2)CN(C(=O)C2(F)CC2)C3)CC1.O=CO` (single isomer, unassigned) [Example 7P, (R)-1-(2-(2-(1-(2-(1-fluorocyclopropane-1-carbonyl)-2-azaspiro[3.4]octan-6-yl)piperidin-4-yl)phenoxy)ethyl)pyrrolidin-2-one formate salt or (S)-1-(2-(2-(1-(2-(1-fluorocyclopropane-1-carbonyl)-2-azaspiro[3.4]octan-6-yl)piperidin-4-yl)phenoxy)ethyl)pyrrolidin-2-one formate salt] are 46%, 29 nM, 0% and > 25000 nM.

Broadly, the EC50 is the concentration that produces a half-maximal response.
